These results are taken from patent US11912681B2, “Crystalline and salt forms of PPAR agonist compounds” (Mitobridge, Inc., priority 2016, dated 2024).

What all share (format): physicochemical
Data set [1] in a line: Chemical stability study, degradation and recovery by HPLC. The protocol: (§1) The material was stored at 4° C., 25° C./60% RH, 40° C., and 40° C./75% RH for eight weeks as well as stressed conditions of 70° C. and 70° C./75% RH for two weeks. In addition, photostability was also measured after exposing the material to two cycles of ICH conditions. Degradation and recovery was measured by HPLC. See Table 6 for HPLC results, including percent recovery of solids and relative retention time area percentages, compared against the standard stored at 4° C.

Data set [2] is described as follows: Dynamic vapor sorption analysis (hygroscopicity). From the text:
At approximately 90% RH, the material reversibly picks up approximately 3.5% water by weight.

Data set [3] is described as follows: Physical stability on storage by XRPD. The settings on record: all storage conditions of the stability study. The protocol:
as §1
XRPD was used to check the physical stability.

Data set [4] can be described thus: Stability of Compound A salts in water (XRPD). Particulars: about 20 mg in 1 mL water, overnight, 20° C., 850 rpm. Here is the method: The stability of the sulfate, phosphate, L-lysine, and TRIS salts prepared in Example 3 were tested. Approximately 20 mg of each sample was combined with 1 mL of water in microcentrifuge tubes. The samples were allowed to mix overnight on a temperature controlled shaker at 20° C. at 850 rpm. The solids were characterized by XPRD to determine if a solid state form change occurred.

A short description of data set [5]: Thermodynamic stability form (slurry) screen, XRPD. Particulars: fifteen days. The protocol:
The vials were sealed then placed onto temperature controlled stir plates and stirred for fifteen days at 500 rpm.

The nature of data set [6]: Relative thermodynamic stability of hemisulfate form 1 and form 2 (DSC, competition slurry). Particulars: ethyl acetate, two days at 25° C. then eight days at 4° C., slurried with form 1. Here is the method:
[…] Both forms were still present in the slurry, so the experiment was moved to 4° C.
After two days, both forms were still present in the slurry, so the experiment was moved to 4° C.

Regarding `Cc1cnc(-c2ccc(C(F)(F)F)cc2)n1Cc1ccccc1OCCC[C@@H](C)CC(=O)O` [Compound A hemisulfate form 1, (R)-3-methyl-6-(2-((5-methyl-2-(4-(trifluoromethyl)phenyl)-1H-imidazol-1-yl)methyl)phenoxy)hexanoic acid], the “% recovery of solids (HPLC)” value is 101% in data set [1] (4° C., 4 wk); 100% in data set [1] (4° C., 8 wk); 100% in data set [1] (25° C./60% RH, 4 wk); 99% in data set [1] (25° C./60% RH, 8 wk); 101% in data set [1] (40° C., 4 wk); 101% in data set [1] (40° C., 8 wk). Also, the “% recovery of solids (HPLC)” value in data set [1] (40° C./75% RH, 4 wk) amounted to 101%; in data set [1] (40° C./75% RH, 8 wk) it was 100%; in data set [1] (70° C., 2 wk) it was 101%; in data set [1] (70° C./75% RH, 2 wk) it was 101%; in data set [1] (Control (dark) of photostability), 100%; in data set [1] (Photo, two cycles of ICH conditions), 98%. Also, the “water picked up by weight (DVS)” value in data set [2] (25° C., approximately 90% RH, reversible) is “approximately 3.5%”. Also, the “solid form after DVS (XRPD)” value in data set [2] (after DVS at 25° C.) is listed as “remained Compound A hemisulfate form 1”. The “physical stability, solid state form (XRPD)” value in data set [3] was “No changes in solid state form”. Moreover, the “solid state form change (XRPD) after mixing in water” value in data set [4] is listed as “no change in the solids”. For the same compound, the “Results (solid state form after slurry)” value is given as “No change in form” in data set [5] (2-Methyl-THF, 25° C.); “No change in form” in data set [5] (2-Propanol, 50° C.); “No change in form” in data set [5] (Acetone, 25° C.); “No change in form” in data set [5] (Acetonitrile, 50° C.); “No change in form” in data set [5] (CPME, 50° C.); “No change in form” in data set [5] (Dichloromethane, 4° C.). Moreover, the “Results (solid state form after slurry)” value is given as “No change in form” in data set [5] (Ethanol, 50° C.); “No change in form” in data set [5] (Ethyl Acetate, 50° C.); “No change in form” in data set [5] (Tetrahydrofuran, 25° C.); “No change in form” in data set [5] (Toluene, 50° C.); “No change in form” in data set [5] (Water, 25° C.); “No change in form” in data set [5] (Water/Acetonitrile (1/3, v/v), 4° C.).
Take `Cc1cnc(-c2ccc(C(F)(F)F)cc2)n1Cc1ccccc1OCCC[C@@H](C)CC(=O)O` [Compound A hemisulfate form 2, (R)-3-methyl-6-(2-((5-methyl-2-(4-(trifluoromethyl)phenyl)-1H-imidazol-1-yl)methyl)phenoxy)hexanoic acid]: the “competition slurry outcome (XRPD)” value in data set [6] was “remained a mixture of forms”.
